From the supplement of paper PMC10883282 come the findings set out here.

Each structure is given as a SMILES string. ± gives the standard deviation of the averaged measurements.

In the test the test system is VA-ES-BJ. The test is described as follows: relative viability vs DMSO control (72 h) (fraction); higher = more viable cells. The gist of the method: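 After seeding at densities set for 80–90% confluence in 384-well plates, sarcoma cell lines waited 24 h before 2.5 µl of serially diluted compound was added. Source plates held 10 mM down to 0.0002 mM. Plates were incubated 72 h at 37 °C with 5% CO2, with 0.1% DMSO vehicle and a 5 µM positive control, and relative viability was taken from ATPLite as percent growth averaged over up to triplicate wells, with 1 set as full and 0 as none.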

For `CC(C)(C)c1cc(NC(=O)Nc2ccc(-c3cn4c(n3)sc3cc(OCCN5CCOCC5)ccc34)cc2)no1` [Quizartinib], the relative viability stood at 1.06 ± 0.028 (0.00017 µM); 1.06 ± 0.038 (0.00051 µM); 1.05 ± 0.019 (0.00152 µM); 1.06 ± 0.032 (0.00457 µM); 1.05 ± 0.026 (0.01372 µM); 1.05 ± 0.038 (0.04115 µM). Moreover, the relative viability runs as follows: (0.1235 µM) 1.02 ± 0.059; (0.3704 µM) 1.04 ± 0.03; (1.111 µM) 1.02 ± 0.045; (3.333 µM) 0.947 ± 0.022; (10 µM) 0.831 ± 0.032.
As to `CNC(=O)c1ccc(-c2cnc3ncc(Cc4ccc5ncccc5c4)n3n2)cc1F` [Capmatinib], the relative viability runs as follows: (0.00017 µM) 1.06 ± 0.068; (0.00051 µM) 1.03 ± 0.042; (0.00152 µM) 1.01 ± 0.062; (0.00457 µM) 0.943 ± 0.04; (0.01372 µM) 0.87 ± 0.016; (0.04115 µM) 0.844 ± 0.03. The relative viability by setting is: (0.1235 µM) 0.839 ± 0.01; (0.3704 µM) 0.844 ± 0.017; (1.111 µM) 0.878 ± 0.059; (3.333 µM) 0.88 ± 0.035; (10 µM) 0.855 ± 0.036.
With `CC(C)N1CCN(Cc2cnc(-c3cc(-c4cccc5[nH]ccc45)cc4[nH]ncc34)o2)CC1` [Nemiralisib], the relative viability by setting is: (0.00017 µM) 0.985 ± 0.032; (0.00051 µM) 0.987 ± 0.045; (0.00152 µM) 0.981 ± 0.047; (0.00457 µM) 1.01 ± 0.04; (0.01372 µM) 0.96 ± 0.026; (0.04115 µM) 0.965 ± 0.041. Moreover, the relative viability (0.1235 µM) is 0.982 ± 0.038; the relative viability (0.3704 µM) stood at 0.9285 ± 0.0062; the relative viability (1.111 µM) came out at 0.901 ± 0.049; the relative viability (3.333 µM) worked out at 0.811 ± 0.017; the relative viability (10 µM) amounted to 0.655 ± 0.038.
Regarding `C[C@@H](c1ccc2nccn2c1)n1nnc2ncc(-c3cnn(C)c3)nc21` [Volitinib], the relative viability (0.00017 µM) turned out to be 1.07 ± 0.067; the relative viability (0.00051 µM) was 1.07 ± 0.053; the relative viability (0.00152 µM) was determined as 1.04 ± 0.062; the relative viability (0.00457 µM) stood at 1.02 ± 0.046; the relative viability (0.01372 µM) was 0.93 ± 0.043; the relative viability (0.04115 µM) was determined as 0.868 ± 0.066. The relative viability was determined as 0.875 ± 0.03 (0.1235 µM); 0.879 ± 0.058 (0.3704 µM); 0.884 ± 0.048 (1.111 µM); 0.873 ± 0.042 (3.333 µM); 0.886 ± 0.048 (10 µM).
Take `COc1c(OCCCN2CCOCC2)ccc2c1N=C(NC(=O)c1cnc(N)nc1)N1CCN=C21` [Copanlisib]: the relative viability was determined as 1.09 ± 0.027 (0.00017 µM); 0.983 ± 0.071 (0.00051 µM); 1.066 ± 0.0069 (0.00152 µM); 0.74 ± 0.026 (0.00457 µM); 0.594 ± 0.029 (0.01372 µM); 0.484 ± 0.017 (0.04115 µM). Also, the relative viability (0.1235 µM) is 0.42 ± 0.022; the relative viability (0.3704 µM) was 0.396 ± 0.041; the relative viability (1.111 µM) worked out at 0.406 ± 0.019; the relative viability (3.333 µM) is 0.394 ± 0.095; the relative viability (10 µM) worked out at 0.304 ± 0.16.
As to `CCN1CCN(Cc2ccc(Nc3ncc(F)c(-c4cc(F)c5nc(C)n(C(C)C)c5c4)n3)nc2)CC1` [Abemaciclib], the relative viability is, setting by setting: (0.00017 µM) 1.02 ± 0.014; (0.00051 µM) 1.03 ± 0.0088; (0.00152 µM) 1.015 ± 0.0082; (0.00457 µM) 1 ± 0.019; (0.01372 µM) 0.994 ± 0.037; (0.04115 µM) 0.92 ± 0.042. For the same molecule, the relative viability amounted to 0.779 ± 0.032 (0.1235 µM); 0.694 ± 0.018 (0.3704 µM); 0.681 ± 0.023 (1.111 µM); 0.562 ± 0.021 (3.333 µM); 0.427 ± 0.056 (10 µM).
For `C[C@]1(O)C[C@@H](c2nc(-c3ccc4ccc(-c5ccccc5)nc4c3)c3c(N)nccn32)C1` [Linsitinib], the relative viability turned out to be 1.08 ± 0.025 (0.00017 µM); 1.07 ± 0.04 (0.00051 µM); 1.05 ± 0.05 (0.00152 µM); 1.06 ± 0.011 (0.00457 µM); 1.01 ± 0.02 (0.01372 µM); 0.989 ± 0.021 (0.04115 µM). Moreover, the relative viability is, setting by setting: (0.1235 µM) 0.987 ± 0.052; (0.3704 µM) 0.966 ± 0.042; (1.111 µM) 0.937 ± 0.05; (3.333 µM) 0.871 ± 0.11; (10 µM) 0.74 ± 0.036.
Regarding `Cc1ccc(NC(=O)c2ccc(CN3CCN(C)CC3)cc2)cc1Nc1nc(-c2cccnc2)cs1` [Masitinib], the relative viability runs as follows: (0.00017 µM) 1.08 ± 0.016; (0.00051 µM) 1.078 ± 0.0055; (0.00152 µM) 1.05 ± 0.019; (0.00457 µM) 1.06 ± 0.033; (0.01372 µM) 1.08 ± 0.022; (0.04115 µM) 1.05 ± 0.013. Further, the relative viability is, setting by setting: (0.1235 µM) 1.02 ± 0.024; (0.3704 µM) 1.01 ± 0.038; (1.111 µM) 0.897 ± 0.02; (3.333 µM) 0.621 ± 0.016; (10 µM) 0.177 ± 0.0072.
Take `CN1CCN(c2ccc3nc(-c4c(N)c5c(F)cccc5[nH]c4=O)[nH]c3c2)CC1` [Dovitinib]: the relative viability is, setting by setting: (0.00017 µM) 1.06 ± 0.027; (0.00051 µM) 1.06 ± 0.028; (0.00152 µM) 1.08 ± 0.044; (0.00457 µM) 1.08 ± 0.028; (0.01372 µM) 1.07 ± 0.029; (0.04115 µM) 1.06 ± 0.031. The relative viability runs as follows: (0.1235 µM) 1.05 ± 0.025; (0.3704 µM) 0.956 ± 0.0053; (1.111 µM) 0.738 ± 0.049; (3.333 µM) 0.495 ± 0.021; (10 µM) 0.313 ± 0.039.
